tested on: cholesterol absorption (serum 3H-cholesterol); test: In Vivo Assay of Hypolipidemic Agents using the Rat Cholesterol Absorption Model; design: species or system Sprague-Dawley rats; details: po, peroral, 1 mg/kg, serum 3H-cholesterol 3 h after cholesterol dose, vs vehicle control
Procedure: In Vivo Assay of Hypolipidemic Agents using the Rat Cholesterol Absorption Model. This model is based on models described by Burnett et al (2002), Bioorg. Med. Chem. Lett. 2002 Feb. 11;12(3):315-8 and J. Lipid Res. 1999 October;40(10):1747-57. Female Sprague-Dawley rats weighing 150-250 g are separated into groups of […] and fasted overnight. The animals (4-6/group) are dosed perorally with 300 μL test compounds in olive oil or suitable vehicle. Thirty minutes later, 3-5 microCuries ^3H-cholesterol per rat are delivered perorally in 300 μL olive oil. After three hours, 200 μL serum is collected, vortexed with scintillation fluid, and measured for radioactivity in a scintillation counter. Percent inhibition is defined as 100*(1−Ctest/Cctrl), where Ctest and Cctl refer to ^3H levels in serum for the test compound and for the vehicle only control, respectively. Percent inhibition values are reported for a fixed dose. The ED50 is the dose at which the half-maximal effect on serum ^3H levels is observed for a given test compound.
Representative compounds of the invention were tested in the Rat Cholesterol Absorption model above.

Q: `CO[C@H]1O[C@H](COc2cccc(-c3ccc([C@@H]4[C@@H](CC[C@H](O)c5ccc(F)cc5)C(=O)N4c4ccc(F)cc4)cc3)c2)[C@@H](O)[C@H](O)[C@H]1O` [Example 77, Methyl 6-O-(4′-{(2S,3R)-1-(4-fluorophenyl)-3-[(3S)-3-(4-fluorophenyl)-3-hydroxypropyl]-4-oxoazetidin-2-yl}biphenyl-3-yl)-α-D-glucopyranoside] was tested. Which inhibition in vivo at 1 mg/kg did it give?
A: 70%

Q: How did the inhibition in vivo at 1 mg/kg turn out when `O=C1[C@H](CC[C@H](O)c2ccc(F)cc2)[C@@H](c2ccc(-c3cccc(OC[C@@H](O)[C@@H](O)[C@H](O)[C@@H](O)CO)c3)cc2)N1c1ccc(F)cc1` [Example 78, 6-O-(4′-{(2S,3R)-1-(4-Fluorophenyl)-3-[(3S)-3-(4-fluorophenyl)-3-hydroxypropyl]-4-oxoazetidin-2-yl}biphenyl-3-yl)-D-glucitol] was run?
A: 51%

Q: How did the inhibition in vivo at 1 mg/kg turn out when `COc1ccc(-c2ccc([C@@H]3[C@@H](CC[C@H](O)c4ccc(F)cc4)C(=O)N3c3ccc(F)cc3)cc2)cc1OC` [Example 81, (3R,4S)-4-(3′,4′-dimethoxybiphenyl-4-yl)-1-(4-fluorophenyl)-3-[(3S)-3-(4-fluorophenyl)-3-hydroxypropyl]azetidin-2-one] was run?
A: 17%

Q: `CSc1cccc(-c2ccc([C@@H]3[C@@H](CC[C@H](O)c4ccc(F)cc4)C(=O)N3c3ccc(F)cc3)cc2)c1` [Example 82, (3R,4S)-1-(4-fluorophenyl)-3-[(3S)-3-(4-fluorophenyl)-3-hydroxypropyl]-4-[3′-(methylthio)biphenyl-4-yl]azetidin-2-one] was tested. Which inhibition in vivo at 1 mg/kg did it give?
A: 28%

Q: How did the inhibition in vivo at 1 mg/kg turn out when `CN(C)c1cccc(-c2ccc([C@@H]3[C@@H](CC[C@H](O)c4ccc(F)cc4)C(=O)N3c3ccc(F)cc3)cc2)c1` [Example 83, (3R,4S)-4-[3′-(dimethylamino)biphenyl-4-yl]-1-(4-fluorophenyl)-3-[(3S)-3-(4-fluorophenyl)-3-hydroxypropyl]azetidin-2-one] was run?
A: 38%

Q: `C=Cc1ccc(-c2ccc([C@@H]3[C@@H](CC[C@H](O)c4ccc(F)cc4)C(=O)N3c3ccc(F)cc3)cc2)cc1` [Example 84, (3R,4S)-1-(4-fluorophenyl)-3-[(3S)-3-(4-fluorophenyl)-3-hydroxypropyl]-4-(4′-vinylbiphenyl-4-yl)azetidin-2-one] was tested. Which inhibition in vivo at 1 mg/kg did it give?
A: 51%

Q: How did the inhibition in vivo at 1 mg/kg turn out when `COc1ccc(C=O)c(-c2ccc([C@@H]3[C@@H](CC[C@H](O)c4ccc(F)cc4)C(=O)N3c3ccc(F)cc3)cc2)c1` [Example 85, 4′-{(2S,3R)-1-(4-fluorophenyl)-3-[(3S)-3-(4-fluorophenyl)-3-hydroxypropyl]-4-oxoazetidin-2-yl}-5-methoxybiphenyl-2-carbaldehyde] was run?
A: 15%

Q: With `Nc1cccc(-c2ccc([C@@H]3[C@@H](CC[C@H](O)c4ccc(F)cc4)C(=O)N3c3ccc(F)cc3)cc2)c1` [Example 86, (3R,4S)-4-(3′-aminobiphenyl-4-yl)-1-(4-fluorophenyl)-3-[(3S)-3-(4-fluorophenyl)-3-hydroxypropyl]azetidin-2-one] as the compound, how does the inhibition in vivo at 1 mg/kg read?
A: 35%

Q: With `O=C1[C@H](CC[C@H](O)c2ccc(F)cc2)[C@@H](c2ccc(-c3ccc4c(c3)OCCO4)cc2)N1c1ccc(F)cc1` [Example 87, (3R,4S)-4-[4-(2,3-dihydro-1,4-benzodioxin-6-yl)phenyl]-1-(4-fluorophenyl)-3-[(3S)-3-(4-fluorophenyl)-3-hydroxypropyl]azetidin-2-one] as the compound, how does the inhibition in vivo at 1 mg/kg read?
A: 59%

Q: With `O=C(O)Cc1ccc(-c2ccc([C@@H]3[C@@H](CC[C@H](O)c4ccc(F)cc4)C(=O)N3c3ccc(F)cc3)cc2)cc1` [Example 88, (4′-{(2S,3R)-1-(4-fluorophenyl)-3-[(3S)-3-(4-fluorophenyl)-3-hydroxypropyl]-4-oxoazetidin-2-yl}biphenyl-4-yl)acetic Acid] as the compound, how does the inhibition in vivo at 1 mg/kg read?
A: 30%

Q: `COC(=O)c1ccc(-c2ccc([C@@H]3[C@@H](CC[C@H](O)c4ccc(F)cc4)C(=O)N3c3ccc(F)cc3)cc2)cc1` [Example 89, methyl 4′-{(2S,3R)-1-(4-fluorophenyl)-3-[(3S)-3-(4-fluorophenyl)-3-hydroxypropyl]-4-oxoazetidin-2-yl}biphenyl-4-carboxylate] was tested. Which inhibition in vivo at 1 mg/kg did it give?
A: 45%

Q: Which inhibition in vivo at 1 mg/kg does the source give for `Cc1cc(C)cc(-c2ccc([C@@H]3[C@@H](CC[C@H](O)c4ccc(F)cc4)C(=O)N3c3ccc(F)cc3)cc2)c1` [Example 90, (3R,4S)-4-(3′,5′-dimethylbiphenyl-4-yl)-1-(4-fluorophenyl)-3-[(3S)-3-(4-fluorophenyl)-3-hydroxypropyl]azetidin-2-one] here?
A: 27%

Q: `O=C1[C@H](CC[C@H](O)c2ccc(F)cc2)[C@@H](c2ccc(-c3ccc4ccccc4c3)cc2)N1c1ccc(F)cc1` [Example 91, (3R,4S)-1-(4-fluorophenyl)-3-[(3S)-3-(4-fluorophenyl)-3-hydroxypropyl]-4-[4-(2-naphthyl)phenyl]azetidin-2-one] was tested. Which inhibition in vivo at 1 mg/kg did it give?
A: 56%

Q: `O=C1[C@H](CC[C@H](O)c2ccc(F)cc2)[C@@H](c2ccc(-c3cccc(C(F)(F)F)c3)cc2)N1c1ccc(F)cc1` [Example 92, (3R,4S)-1-(4-fluorophenyl)-3-[(3S)-3-(4-fluorophenyl)-3-hydroxypropyl]-4-[3′-(trifluoromethyl)biphenyl-4-yl]azetidin-2-one] was tested. Which inhibition in vivo at 1 mg/kg did it give?
A: 17%

Q: `Cc1cccc(-c2ccc([C@@H]3[C@@H](CC[C@H](O)c4ccc(F)cc4)C(=O)N3c3ccc(F)cc3)cc2)c1` [Example 93, (3R,4S)-1-(4-fluorophenyl)-3-[(3S)-3-(4-fluorophenyl)-3-hydroxypropyl]-4-(3′-methylbiphenyl-4-yl)azetidin-2-one] was tested. Which inhibition in vivo at 1 mg/kg did it give?
A: 28%

Q: How did the inhibition in vivo at 1 mg/kg turn out when `Cc1cc(-c2ccc([C@@H]3[C@@H](CC[C@H](O)c4ccc(F)cc4)C(=O)N3c3ccc(F)cc3)cc2)ccc1F` [Example 94, (3R,4S)-4-(4′-fluoro-3′-methylbiphenyl-4-yl)-1-(4-fluorophenyl)-3-[(3S)-3-(4-fluorophenyl)-3-hydroxypropyl]azetidin-2-one] was run?
A: 30%

Q: With `O=C1[C@H](CC[C@H](O)c2ccc(F)cc2)[C@@H](c2ccc(-c3cccc(O[C@H]4O[C@@H](CO)[C@H](O)[C@@H](O)[C@@H]4O)c3)cc2)N1c1ccc(F)cc1` [Example 95, 4′-{(2S,3R)-1-(4-fluorophenyl)-3-[(3S)-3-(4-fluorophenyl)-3-hydroxypropyl]-4-oxoazetidin-2-yl}biphenyl-3-yl β-L-glucopyranoside] as the compound, how does the inhibition in vivo at 1 mg/kg read?
A: 57%

Q: With `COc1ccc(-c2ccc([C@@H]3[C@@H](CC[C@H](O)c4ccc(F)cc4)C(=O)N3c3ccc(F)cc3)cc2)c(OC)c1OC` [Example 96, (3R,4S)-1-(4-fluorophenyl)-3-[(3S)-3-(4-fluorophenyl)-3-hydroxypropyl]-4-(2′,3′,4′-trimethoxybiphenyl-4-yl)azetidin-2-one] as the compound, how does the inhibition in vivo at 1 mg/kg read?
A: 69%

Q: Which inhibition in vivo at 1 mg/kg does the source give for `COc1ccc(-c2ccc([C@@H]3[C@@H](CC[C@H](O)c4ccc(F)cc4)C(=O)N3c3ccc(F)cc3)cc2)c(OC)c1` [Example 97, (3R,4S)-4-(2′,4′-dimethoxybiphenyl-4-yl)-1-(4-fluorophenyl)-3-[(3S)-3-(4-fluorophenyl)-3-hydroxypropyl]azetidin-2-one] here?
A: 40%

Q: Which inhibition in vivo at 1 mg/kg does the source give for `Cc1ccccc1-c1ccc([C@@H]2[C@@H](CC[C@H](O)c3ccc(F)cc3)C(=O)N2c2ccc(F)cc2)cc1` [Example 98, (3R,4S)-1-(4-fluorophenyl)-3-[(3S)-3-(4-fluorophenyl)-3-hydroxypropyl]-4-(2′-methylbiphenyl-4-yl)azetidin-2-one] here?
A: 7%

Q: How did the inhibition in vivo at 1 mg/kg turn out when `O=Cc1ccc(-c2ccc([C@@H]3[C@@H](CC[C@H](O)c4ccc(F)cc4)C(=O)N3c3ccc(F)cc3)cc2)cc1` [Example 99, 4′-{(2S,3R)-1-(4-fluorophenyl)-3-[(3S)-3-(4-fluorophenyl)-3-hydroxypropyl]-4-oxoazetidin-2-yl}biphenyl-4-carbaldehyde] was run?
A: 38%

Q: Which inhibition in vivo at 1 mg/kg does the source give for `CCOc1cccc(-c2ccc([C@@H]3[C@@H](CC[C@H](O)c4ccc(F)cc4)C(=O)N3c3ccc(F)cc3)cc2)c1` [Example 100, (3R,4S)-4-(3′-ethoxybiphenyl-4-yl)-1-(4-fluorophenyl)-3-[(3S)-3-(4-fluorophenyl)-3-hydroxypropyl]azetidin-2-one] here?
A: 54%

Q: With `CCOc1ccc(-c2ccc([C@@H]3[C@@H](CC[C@H](O)c4ccc(F)cc4)C(=O)N3c3ccc(F)cc3)cc2)cc1` [Example 101, (3R,4S)-4-(4′-ethoxybiphenyl-4-yl)-1-(4-fluorophenyl)-3-[(3S)-3-(4-fluorophenyl)-3-hydroxypropyl]azetidin-2-one] as the compound, how does the inhibition in vivo at 1 mg/kg read?
A: 41%

Q: `COc1cc(-c2ccc([C@@H]3[C@@H](CC[C@H](O)c4ccc(F)cc4)C(=O)N3c3ccc(F)cc3)cc2)ccc1O` [Example 102, (3R,4S)-1-(4-fluorophenyl)-3-[(3S)-3-(4-fluorophenyl)-3-hydroxypropyl]-4-(4′-hydroxy-3′-methoxybiphenyl-4-yl)azetidin-2-one] was tested. Which inhibition in vivo at 1 mg/kg did it give?
A: 56%

Q: Which inhibition in vivo at 1 mg/kg does the source give for `CCCOc1cccc(-c2ccc([C@@H]3[C@@H](CC[C@H](O)c4ccc(F)cc4)C(=O)N3c3ccc(F)cc3)cc2)c1` [Example 103, (3R,4S)-1-(4-fluorophenyl)-3-[(3S)-3-(4-fluorophenyl)-3-hydroxypropyl]-4-(3′-propoxybiphenyl-4-yl)azetidin-2-one] here?
A: 21%

Q: How did the inhibition in vivo at 1 mg/kg turn out when `O=Cc1ccc(O)cc1-c1ccc([C@@H]2[C@@H](CC[C@H](O)c3ccc(F)cc3)C(=O)N2c2ccc(F)cc2)cc1` [Example 104, 4′-{(2S,3R)-1-(4-fluorophenyl)-3-[(3S)-3-(4-fluorophenyl)-3-hydroxypropyl]-4-oxoazetidin-2-yl}-5-hydroxybiphenyl-2-carbaldehyde] was run?
A: 52%

Source: patent US7320972B2, “4-Biarylyl-1-phenylazetidin-2-ones” (Microbia, Inc., priority 2003, dated 2008)
